Entries after “also recorded” stand apart in the source; their conditions may differ. Like-named read-outs stand apart in the source and are kept apart here.
Tested on: Zellen eines ösophago-gastralen Karzinoms oder eines Magenkarzinoms
Test: Cell viability dose-response of single FLOT components on in vitro cultured patient tumour cells (Presto Blue)
Assay type: cell-based
From the text: Die Konzentration der mindestens einen Komponente der Testzusammensetzung kann auf Basis von empirisch ermittelten Werten festgelegt werden. Zur empirischen Bestimmung von geeigneten Komponentenkonzentrationen für die Testzusammensetzung werden zunächst Zellen eines ösophago-gastralen Karzinoms, insbesondere eines Magenkarzinoms, von mehreren Patienten entnommen und diese Zellen jeweils separat bei physiologischen Bedingungen in vitro kultiviert. Dabei kann die Patientenkultur auf mehrere Vertiefungen einer Zellkulturplatte aufgeteilt werden. Die kultivierten Patientenzellen werden anschließend jeweils mit einer der Komponenten in jeweils vorgegebenen Konzentrationen in Kontakt gebracht und inkubiert. Das heißt, die die Patientenkulturen werden mit den jeweiligen Komponentenkonzentrationen behandelt. Da sich für Leucovorin selbst keine Wirkung auf die Zellen nachweisen lässt, kann Leucovorin als Komponente zur Bestimmung der Komponentenkonzentration ausgenommen werden. Die Behandlung kann in zwei Vorgehensvarianten unterschieden werden. Gemäß einer ersten Variante erfolgt die Behandlung einer Patientenkultur mit den Komponentenkonzentrationen der betreffenden Komponente beginnend mit der niedrigsten Komponentenkonzentration, wobei die Komponentenkonzentration jeweils nach einer vorgegebenen Inkubationszeit schrittweise oder kontinuierlich erhöht wird. Die Zellviabilität wird dabei nach vorgegebenen Inkubationszeiten bestimmt. Gemäß einer zweiten Variante, werden Patientenzellen enthaltene Vertiefungen jeweils mit einer konkreten Konzentration der jeweiligen Komponente behandelt und inkubiert, wobei die Zellviabilitäten nach einer vorgegebenen Inkubationszeit bestimmt werden. Auf diese Weise können mehrere Komponentenkonzentrationen verschiedener Konzentrationen gleichzeitig getestet werden.
Für jede Komponente 5-Fluorouracil, Oxaliplatin und Docetaxel, kann eine patientenspezifische mittlere inhibitorische Konzentration IC50 (IC50F, IC50O, IC50T,) ermittelt werden. Die IC50-Werte geben an, ab welcher Konzentration der Komponenten eine halbmaximale Wachstumshemmung der Patientenzellen erreicht ist. Anschließend wird aus den Werten der ermittelten patientenspezifischen mittleren inhibitorischen Konzentrationen (IC50F, IC50O, IC50T) für jede Komponente (5-Fluorouracil, Oxaliplatin und Docetaxel, (F, O, T)) ein inhibitorischer Konzentrations-Mittelwert (mIC50F, mIC50O, mIC50T) bestimmt. Der inhibitorische Konzentrations-Mittelwert mIC50 ist der Mittelwert aus der Gesamtheit der IC50-Werte einer der Komponenten (F, O, T). […]

`O=c1[nH]cc(F)c(=O)[nH]1` [5-FU, 5-Fluorouracil] gave an IC50 (144 h, read-out: 5-FU-spezifische mittlere halbmaximale inhibitorische Konzentration mIC50F) of 10.3 µM.
With `Nc1nc2c(c(=O)[nH]1)N(C=O)C(CNc1ccc(C(=O)N[C@@H](CCC(=O)O)C(=O)O)cc1)CN2` (stereo partly shown) [Leucovorin] the “Effekt auf die Zellviabilität der Patientenkulturen” value (single-agent tests) was “keine Wirkung; also recorded: keinen Effekt”.
For `O=C1[O][Pt]2([NH][C@@H]3CCCC[C@H]3[NH]2)[O]C1=O` [Oxaliplatin], the IC50 (cell cultures of 13 patients, same procedure as for 5-FU, read-out: Oxaliplatin-spezifische mittlere halbmaximale inhibitorische Konzentration mIC50O) was 10.7 µM.
`CC(=O)O[C@@]12CO[C@@H]1C[C@H](O)[C@@]1(C)C(=O)[C@H](O)C3=C(C)[C@@H](OC(=O)[C@H](O)[C@@H](NC(=O)OC(C)(C)C)c4ccccc4)C[C@@](O)([C@@H](OC(=O)c4ccccc4)[C@H]21)C3(C)C` [Docetaxel] gave an IC50 (cell cultures of 13 patients, same procedure as for 5-FU, read-out: Docetaxelspezifische mittlere halbmaximale inhibitorische Konzentration mIC50T) of 0.0012 µM.

— patent publication EP4382907A1, “METHOD FOR PREDICTING A PATIENT-SPECIFIC RESPONSE TO THE FLOT CHEMOTHERAPY SCHEME” (Technische Universität Dresden, priority 2022, dated 2024)
